From patent US20150011528A1, “PHENYLIMIDE-CONTAINING BENZOTHIAZOLE DERIVATIVE OF ITS SALT AND PHARMACEUTICAL COMPOSITION COMPRISING THE SAME” (YUHAN CORPORATION, priority 2011, published 2015)

How the values were obtained:
Format in all cases: cell-based
[1] = biological target: T1, binding between KRS and AIMP2 (Homo sapiens, UniProt Q15046); experiment: Yeast Two Hybrid specificity test, LexA-KRS / B42-AIMP2 co-transformed yeast cells; settings: 1 μL of 20 mM DMSO solution per 200 μL culture; 30° C., 6 days; absorbance 540 nm; non-treated control = 100%
T1 construct: expressed in transfected cells; host or cells: yeast cells (co-transformed)
Procedure: (§1) And also, specificity of the inhibitory activity was evaluated, using the yeast cells cotransformed with the LexA-KRS vector and the B42-AIMP2 vector; and the yeast cells co-transformed with the LexA-KRS vector and the B42-AIMP3 vector, which were respectively prepared according to WO2011/056021. The co-transformation was carried out using the Yeastmaker yeast transformation system2 kit (Clontech), according to the manufacturer's instruction. […] The cultured yeast cells were diluted with the said galactose medium, until the absorbance at 540 nm attains to about 0.15 to 0.2. The diluted culture (200 μL), containing the yeast cells, was added to each well of a 96-well plate. Each test compound was dissolved in dimethyl sulfoxide at a concentration of 20 mM and then the resulting solutions (1 μL) were added to each well. The plate was cultured at 30° C. for 6 days and then the absorbance of each well was measured at 540 nm. The respective yeast cell proliferation rates (%) in the treated samples were calculated in comparison with those of the non-treated control (100%) and the results thereof are shown in Table 1 below.

[2] = biological target: T2, binding between KRS and AIMP3 (Homo sapiens, UniProt Q15046); experiment: Yeast Two Hybrid specificity test, LexA-KRS / B42-AIMP3 co-transformed yeast cells; settings: 1 μL of 20 mM DMSO solution per 200 μL culture; 30° C., 6 days; absorbance 540 nm; non-treated control = 100%
T2 construct: expressed in transfected cells; host or cells: yeast cells (co-transformed)
Procedure: as §1

[3] = biological target: T3, interaction between the KRS protein and the laminin receptor (LR) (Homo sapiens, UniProt Q15046); experiment: Yeast Two Hybrid inhibition of the interaction between the KRS protein and the laminin receptor (LR); settings: 1 μL of 20 mM DMSO solution per 200 μL culture; 30° C., 6 days; absorbance 540 nm; non-treated control = 100%
T3 construct: expressed in transfected cells; host or cells: yeast EGY/SH cells
Procedure: The inhibitory activity against the interaction between the KRS protein and the laminin receptor (LR) was evaluated according to the Yeast Two Hybrid method described in WO2011/056021. According to the disclosures of WO2011/056021, we prepared a vector obtained by cloning the KRS gene in the LexA vector (Clontech) and a vector obtained by cloning the LR gene in the B42 vector (Clontech). The yeast cells, i.e., EGY/SH cells were co-transformed with the LexA-KRS vector and the B42-LR vector. The co-transformation was carried out using the Yeastmaker yeast transformation system2 kit (Clontech), according to the manufacturer's instruction. […] The cultured yeast cells were diluted with the said galactose medium, until the absorbance at 540 nm attains to about 0.15 to 0.2. The diluted culture (200 μL), containing the yeast cells, was added to each well of a 96-well plate. Each test compound was dissolved in dimethyl sulfoxide at a concentration of 20 mM and then the resulting solutions (1 μL) were added to each well. The plate was cultured at 30° C. for 6 days and then the absorbance of the each well was measured at 540 nm.
as §1
When KRS is bound to LR, the trans-activation domain is come close to the DNA-binding domain and the genes for synthesizing essential amino acids are expressed, which leads to normal growth of the transformed yeasts, thereby increasing the absorbance.

A549 cells = experiment: Cell Migration Assay (transwell, laminin); settings: laminin 10 μg/mL in lower well, test compounds 0.39˜100 μM, 6 hours at 37° C.
Procedure: Cell migration was measured with a 24-well transwell having a polycarbonate membrane (8.0 μm pore size, Costar) at the bottom of the upper chamber. Each lower well was treated with laminin (10 μg/mL) and test compounds (0.39˜100 μM) along with a serum-free RPMI1640 medium. A549 cells (Korean Cell Line Bank) were suspended in a serum-free RPMI1640 medium at a concentration of 1×10^6 cells/mL and then the test compounds were added thereto at the indicated concentrations. Each resulting solution (100 μL) was added to the upper chamber. The cells were cultured at 37° C. for 6 hours in a CO2 incubator. The upper chamber was taken out and then the cells were fixed with PBS containing 70% methyl alcohol for 10 minutes, followed by washing with PBS twice. The cells were stained with hematoxylin (Sigma) for 10 minutes and then washed with distilled water. The non-migrated cells were removed from the upper portion of the polycarbonate membrane with a cotton swab. The membranes were excised and separated from the chamber, and then mounted to a slide using a gel mount reagent (Biomeda, USA). The migrated cells (attached to the lower face of the membrane) were counted at three randomly selected sites under a microscope (×20). The cell counting was performed with the Image J program. From the counted cell numbers, each IC50 value was calculated by non-linear regression curve fit using the “GraphPad Prism” program.
The cells are pulled by laminin residing in the lower chamber and then passed through the polycarbonate membrane, so as to attach to the lower face of the membrane.

T3 sequence (Q15046 whole entry): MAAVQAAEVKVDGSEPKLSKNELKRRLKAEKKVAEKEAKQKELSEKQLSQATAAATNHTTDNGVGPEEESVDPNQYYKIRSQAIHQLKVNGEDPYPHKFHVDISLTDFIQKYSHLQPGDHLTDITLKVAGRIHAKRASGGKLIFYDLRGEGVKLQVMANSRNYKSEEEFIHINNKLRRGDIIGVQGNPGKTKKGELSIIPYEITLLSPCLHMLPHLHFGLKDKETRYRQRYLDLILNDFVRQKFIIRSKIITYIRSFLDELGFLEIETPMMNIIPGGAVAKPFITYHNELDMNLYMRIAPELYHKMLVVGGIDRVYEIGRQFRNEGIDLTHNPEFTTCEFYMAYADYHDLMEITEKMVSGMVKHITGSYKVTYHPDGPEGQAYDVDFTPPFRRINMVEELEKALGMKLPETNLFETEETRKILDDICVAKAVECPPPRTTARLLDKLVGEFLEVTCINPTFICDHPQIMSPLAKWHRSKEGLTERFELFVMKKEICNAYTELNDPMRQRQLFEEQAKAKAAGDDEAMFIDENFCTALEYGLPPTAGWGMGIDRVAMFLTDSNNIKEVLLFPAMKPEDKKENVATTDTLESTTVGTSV
T2 sequence (Q15046 whole entry): as above
T1 sequence (Q15046 whole entry): as above

| SMILES | Yeast cell proliferation rates KRS-AIMP2 (%) [1] | Yeast cell proliferation rates KRS-AIMP3 (%) [2] | Yeast cell proliferation rates KRS-LR (%) [3] | IC50 (A549 cells; Homo sapiens) | IC50 (A549 cells) |
| --- | --- | --- | --- | --- | --- |
| CCOc1ccc2c(c1)sc(=NC(=O)c1ccc(C)cc1)n2C(CC)C(=O)O (stereo not shown) [Example 7, 2-{6-ethoxy-2-[(4-methylbenzoyl)imino]benzo[d]thiazol-3(2H)-yl}butanoic acid] | 106.4% | 100.1% | 36.9% | – | – |
| CCC(C(=O)O)n1c(=NC(=O)c2ccc(C)cc2)sc2cccc(OC)c21 (stereo not shown) [Example 8, 2-{4-methoxy-2-[(4-methylbenzoyl)imino]benzo[d]thiazol-3(2H)-yl}butanoic acid] | 84.6% | 84.1% | 17.4% | – | – |
| Cc1ccc(C(=O)N=c2sc3ccc(F)cc3n2C(C)C(=O)O)cc1 (stereo not shown) [Example 91, 2-[5-fluoro-2-(4-methylbenzoylimino)benzo[d]thiazol-3(2H)-yl]propionic acid] | 116.6% | 98.5% | 27.8% | – | – |
| CCC(C(=O)O)n1c(=NC(=O)c2ccc(C)cc2)sc2cc3c(cc21)OCO3 (stereo not shown) [Example 237, 2-(6-((4-methylbenzoyl)imino)-[1,3]dioxolo[4′,5′:4,5]benzo[1,2-d]thiazol-7(6H)-yl)butanoic acid] | 99.0% | 114.8% | 34.1% | – | – |
| CCC(C(=O)O)n1c(=NC(=O)c2ccc(C)cc2)sc2c(F)c(F)ccc21 (stereo not shown) [Example 335, 2-(6,7-difluoro-2-((4-methylbenzoyl)imino)benzo[d]thiazol-3(2H)-yl)butanoic acid] | 101.6% | 105.3% | 10.8% | – | – |
| CC(C(=O)O)n1c(=NC(=O)c2cccc(Cl)c2)sc2c(F)c(F)ccc21 (stereo not shown) [Example 337, 2-(2-((3-chlorobenzoyl)imino)-6,7-difluorobenzo[d]thiazol-3(2H)-yl)propionic acid] | 92.5% | 100.3% | 12.3% | – | – |
| CCC(C(=O)O)n1c(=NC(=O)c2ccc(C)cc2)sc2c(C)cccc21 (stereo not shown) [Example 344, 2-(7-methyl-2-((4-methylbenzoyl)imino)benzo[d]thiazol-3(2H)-yl)butanoic acid] | 99.0% | 102.8% | 11.7% | – | – |
| Cc1cccc2c1sc(=NC(=O)c1cccc(Cl)c1)n2C(C)C(=O)O (stereo not shown) [Example 353, 2-(2-((3-chlorobenzoyl)imino)-7-methylbenzo[d]thiazol-3(2H)-yl)propionic acid] | 89.4% | 99.5% | 28.2% | – | – |
| CCC(C(=O)O)n1c(=NC(=O)c2cccc(Cl)c2)sc2c(C)cccc21 (stereo not shown) [Example 354, 2-(2-((3-chlorobenzoyl)imino)-7-methylbenzo[d]thiazol-3(2H)-yl)butanoic acid] | 103.0% | 106.4% | 30.2% | – | – |
| CC(C(=O)O)n1c(=NC(=O)c2cccc(C(F)(F)F)c2)sc2ccc(F)cc21 (stereo not shown) [Example 355, 2-(5-fluoro-2-((3-(trifluoromethyl)benzoyl)imino)benzo[d]thiazol-3(2H)-yl)propionic acid] | 97.2% | 104.4% | 22.1% | – | – |
| CC(C(=O)O)n1c(=NC(=O)c2cccc(C(F)(F)F)c2)sc2ccc(Cl)cc21 (stereo not shown) [Example 359, 2-(5-chloro-2-((3-(trifluoromethyl)benzoyl)imino)benzo[d]thiazol-3(2H)-yl)propionic acid] | 101.6% | 107.0% | 21.9% | – | – |
| COc1ccc2c(sc(=NC(=O)c3cccc(Cl)c3)n2CC(=O)O)c1F [Example 396, 2-(2-((3-chlorobenzoyl)imino)-7-fluoro-6-methoxybenzo[d]thiazol-3(2H)-yl)acetic acid] | – | – | – | 43 µM | – |

Results, then the compound that gave them:

| Yeast cell proliferation rates KRS-AIMP2 (%) [1] | Yeast cell proliferation rates KRS-AIMP3 (%) [2] | Yeast cell proliferation rates KRS-LR (%) [3] | IC50 (A549 cells; Homo sapiens) | IC50 (A549 cells) | SMILES |
| --- | --- | --- | --- | --- | --- |
| 99.6% | 99.3% | 24.7% | – | – | CC(C(=O)O)n1c(=NC(=O)c2cccc(Cl)c2)sc2c(F)c(F)c(F)cc21 (stereo not shown) [Example 416, 2-(2-((3-chlorobenzoyl)imino)-5,6,7-trifluorobenzo[d]thiazol-3(2H)-yl)propionic acid] |
| – | – | – | 22 µM | – | CCC(C(=O)O)n1c(=NC(=O)c2cccc(Cl)c2)sc2c(F)c(F)c(F)cc21 (stereo not shown) [Example 417, 2-(2-((3-chlorobenzoyl)imino)-5,6,7-trifluorobenzo[d]thiazol-3(2H)-yl)butanoic acid] |
| – | – | – | 18 µM | – | CCOc1ccc2c(sc(=NC(=O)c3cccc(Cl)c3)n2C(CC)C(=O)O)c1F (stereo not shown) [Example 427, 2-(2-((3-chlorobenzoyl)imino)-6-ethoxy-7-fluorobenzo[d]thiazol-3(2H)-yl)butanoic acid] |
| – | – | – | 80 µM | – | Cc1ccc(C(=O)N=c2sc3c(F)cc(F)cc3n2C(C)C(=O)O)cc1 (stereo not shown) [Example 455, 2-(5,7-difluoro-2-((4-methylbenzoyl)imino)benzo[d]thiazol-3(2H)-yl)propionic acid] |
| – | – | – | 43 µM | – | CCC(C(=O)O)n1c(=NC(=O)c2cccc(Cl)c2)sc2c(F)cc(F)cc21 (stereo not shown) [Example 462, 2-(2-((3-chlorobenzoyl)imino)-5,7-difluorobenzo[d]thiazol-3(2H)-yl)butanoic acid] |
| 96.7% | 93.2% | 34.3% | – | – | CC(C(=O)O)n1c(=NC(=O)c2ccc(F)c(F)c2)sc2cc(F)c(F)cc21 (stereo not shown) [Example 463, 2-(2-((3,4-difluorobenzoyl)imino)-5,6-difluorobenzo[d]thiazol-3(2H)-yl)propionic acid] |
| – | – | – | 49 µM | – | CC(C(=O)O)n1c(=NC(=O)c2ccc(F)c(Cl)c2)sc2cc(F)c(F)cc21 (stereo not shown) [Example 466, 2-(2-((3-chloro-4-fluorobenzoyl)imino)-5,6-difluorobenzo[d]thiazol-3(2H)-yl)propionic acid] |
| – | – | – | 19 µM | – | CCC(C(=O)O)n1c(=NC(=O)c2ccc(F)c(Cl)c2)sc2cc(F)c(F)cc21 (stereo not shown) [Example 467, 2-(2-((3-chloro-4-fluorobenzoyl)imino)-5,6-difluorobenzo[d]thiazol-3(2H)-yl)butanoic acid] |
| – | – | – | 41 µM | – | CCC(C(=O)O)n1c(=NC(=O)c2cc(Cl)cc(Cl)c2)sc2cc(F)c(F)cc21 (stereo not shown) [Example 468, 2-(2-((3,5-dichlorobenzoyl)imino)-5,6-difluorobenzo[d]thiazol-3(2H)-yl)butanoic acid] |
| – | – | – | – | 66 µM | CCC(C(=O)O)n1c(=NC(=O)c2cc(F)cc(C(F)(F)F)c2)sc2cc(F)c(F)cc21 (stereo not shown) [Example 469] |
| – | – | – | – | 32 µM | CCC(C(=O)O)n1c(=NC(=O)c2ccc(F)c(C(F)(F)F)c2)sc2cc(F)c(F)cc21 (stereo not shown) [Example 471] |
